From ChEMBL document CHEMBL4382204 (Eur J Med Chem, 2018)
Active and inactive are the calls of the source. The calls are words filed in the database; no cut-off is given here.

Tests used:
[1] = MRT (0 to t) in Sprague-Dawley rat at 10 mg/kg, po by LC-MS/MS analysis; format: ADME, organism-based; conditions: in vivo
Bcr/Abl fusion protein [2] = target: T1, Bcr/Abl fusion protein (Homo sapiens, UniProt P00519, T315I); assay: Inhibition of BCR/ABL T315I mutant (unknown origin) expressed in mouse BAF3 cells assessed as inhibition of ErK phosphorylation after 1 hr by immunoblotting analysis; format: cell-based
[3] = MRT (0 to t) in Sprague-Dawley rat at 1 mg/kg, iv by LC-MS/MS analysis; format: ADME, organism-based; conditions: in vivo
[4] = AUC (0 to t) in mouse at 1 mg/kg, iv by LC-MS/MS analysis; format: ADME, organism-based; conditions: in vivo
Bcr/Abl fusion protein [5] = target: T1, Bcr/Abl fusion protein; assay: Inhibition of BCR/ABL T315I mutant (unknown origin) expressed in mouse BAF3 cells assessed as inhibition of BCR/ABL T315I mutant autophosphorylation at Y245 site after 1 hr by immunoblotting analysis; format: cell-based
[6] = target: T2, Bcr/Abl fusion protein (Homo sapiens) (UniProt P00519+P11274); assay: Inhibition of BCR/ABL in human K562 cells assessed as inhibition of CrkL phosphorylation up to 0.3 uM after 1 hr by immunoblotting analysis; format: cell-based
MEG-01 = assay: Induction of apoptosis in human MEG01 cells assessed as cleaved PARP level up to 0.3 uM after 24 hrs by immunoblotting analysis; format: functional, cell-based
[7] = MRT (0 to t) in mouse at 1 mg/kg, iv by LC-MS/MS analysis; format: ADME, organism-based; conditions: in vivo
[8] = Tmax in mouse at 1 mg/kg, iv by LC-MS/MS analysis; format: ADME, organism-based; conditions: in vivo
[9] = AUC (0 to infinity) in Sprague-Dawley rat at 1 mg/kg, iv by LC-MS/MS analysis; format: ADME, organism-based; design: dose 1 mg/kg, time infinity, route intravenous; conditions: in vivo
[10] = target: T2, Bcr/Abl fusion protein (Homo sapiens); assay: Inhibition of BCR/ABL in human MEG01 cells assessed as inhibition of STAT5 phosphorylation up to 0.3 uM after 1 hr by immunoblotting analysis; format: cell-based
[11] = Antiproliferative activity in CHO cells after 72 hrs by CCK8 assay; format: cell-based, Cricetulus griseus; conditions: chinese hamster
[12] = target: T2, Bcr/Abl fusion protein (Homo sapiens); assay: (§1) Inhibition of BCR/ABL in human MEG01 cells assessed as inhibition of BCR/ABL autophosphorylation at Y245 site after 1 hr by immunoblotting analysis; format: cell-based
Bcr/Abl fusion protein [13] = target: Bcr/Abl fusion protein (Homo sapiens, UniProt P00519); assay: as §1; format: cell-based
[14] = AUC (0 to t) in Sprague-Dawley rat at 10 mg/kg, po by LC-MS/MS analysis; format: ADME, organism-based; conditions: in vivo
[15] = Cmax in mouse at 10 mg/kg, po by LC-MS/MS analysis; format: ADME, organism-based; design: dose 10 mg/kg, route oral; conditions: in vivo
[16] = target: Epithelial discoidin domain-containing receptor 1 (Homo sapiens) (UniProt Q08345); assay: Inhibition of wild type C-terminal FLAG-tagged human TEL fused DDR1 (unknown origin) transfected in mouse BAF3 cells assessed as growth inhibition after 72 hrs by CCK8 assay; format: cell-based
Epithelial discoidin domain-containing receptor 1 (Homo sapiens), sequence (Q08345 whole entry, the tested form may be a part): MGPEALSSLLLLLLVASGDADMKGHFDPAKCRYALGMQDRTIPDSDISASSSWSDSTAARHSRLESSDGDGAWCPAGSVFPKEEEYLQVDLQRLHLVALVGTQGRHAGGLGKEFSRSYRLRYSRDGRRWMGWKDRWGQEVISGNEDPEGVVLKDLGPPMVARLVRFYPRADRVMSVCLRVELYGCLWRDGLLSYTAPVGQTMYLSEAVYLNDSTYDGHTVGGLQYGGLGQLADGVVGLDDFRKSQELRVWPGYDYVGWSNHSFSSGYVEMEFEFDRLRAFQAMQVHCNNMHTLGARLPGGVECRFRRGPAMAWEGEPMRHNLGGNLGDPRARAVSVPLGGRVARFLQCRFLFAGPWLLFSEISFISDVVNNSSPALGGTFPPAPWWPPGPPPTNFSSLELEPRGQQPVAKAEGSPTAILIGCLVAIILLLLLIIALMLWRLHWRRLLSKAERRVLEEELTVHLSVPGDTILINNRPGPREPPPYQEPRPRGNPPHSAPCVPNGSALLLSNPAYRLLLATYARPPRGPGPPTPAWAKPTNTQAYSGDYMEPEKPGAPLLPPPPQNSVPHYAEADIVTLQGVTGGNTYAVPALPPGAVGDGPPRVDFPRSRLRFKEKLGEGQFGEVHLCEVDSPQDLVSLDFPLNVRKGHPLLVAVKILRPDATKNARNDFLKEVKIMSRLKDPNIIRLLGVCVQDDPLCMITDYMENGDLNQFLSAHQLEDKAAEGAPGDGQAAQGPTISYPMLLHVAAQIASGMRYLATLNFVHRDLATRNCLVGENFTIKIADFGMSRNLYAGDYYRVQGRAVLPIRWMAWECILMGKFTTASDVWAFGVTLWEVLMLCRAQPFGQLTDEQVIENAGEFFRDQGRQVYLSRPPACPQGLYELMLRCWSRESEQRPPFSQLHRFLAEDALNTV

[17] = Apparent clearance during terminal phase in Sprague-Dawley rat at 10 mg/kg, po by LC-MS/MS analysis; format: ADME, organism-based; conditions: in vivo, read-out: CLz/F (converted)
[18] = Apparent clearance during terminal phase in mouse at 1 mg/kg, iv by LC-MS/MS analysis; format: ADME, organism-based; conditions: in vivo
BaF3 [19] = assay: Induction of apoptosis in mouse BAF3 cells expressing BCR/ABL T315I mutant assessed as cleaved caspase-3 level up to 0.3 uM after 24 hrs by immunoblotting analysis; format: functional, cell-based
[20] = target: Discoidin domain-containing receptor 2 (Homo sapiens) (UniProt Q16832); assay: Inhibition of BCR fused DDR2 (unknown origin) transfected in mouse BAF3 cells assessed as growth inhibition after 72 hrs by CCK8 assay; format: cell-based
Discoidin domain-containing receptor 2 (Homo sapiens), sequence (Q16832 whole entry, the tested form may be a part): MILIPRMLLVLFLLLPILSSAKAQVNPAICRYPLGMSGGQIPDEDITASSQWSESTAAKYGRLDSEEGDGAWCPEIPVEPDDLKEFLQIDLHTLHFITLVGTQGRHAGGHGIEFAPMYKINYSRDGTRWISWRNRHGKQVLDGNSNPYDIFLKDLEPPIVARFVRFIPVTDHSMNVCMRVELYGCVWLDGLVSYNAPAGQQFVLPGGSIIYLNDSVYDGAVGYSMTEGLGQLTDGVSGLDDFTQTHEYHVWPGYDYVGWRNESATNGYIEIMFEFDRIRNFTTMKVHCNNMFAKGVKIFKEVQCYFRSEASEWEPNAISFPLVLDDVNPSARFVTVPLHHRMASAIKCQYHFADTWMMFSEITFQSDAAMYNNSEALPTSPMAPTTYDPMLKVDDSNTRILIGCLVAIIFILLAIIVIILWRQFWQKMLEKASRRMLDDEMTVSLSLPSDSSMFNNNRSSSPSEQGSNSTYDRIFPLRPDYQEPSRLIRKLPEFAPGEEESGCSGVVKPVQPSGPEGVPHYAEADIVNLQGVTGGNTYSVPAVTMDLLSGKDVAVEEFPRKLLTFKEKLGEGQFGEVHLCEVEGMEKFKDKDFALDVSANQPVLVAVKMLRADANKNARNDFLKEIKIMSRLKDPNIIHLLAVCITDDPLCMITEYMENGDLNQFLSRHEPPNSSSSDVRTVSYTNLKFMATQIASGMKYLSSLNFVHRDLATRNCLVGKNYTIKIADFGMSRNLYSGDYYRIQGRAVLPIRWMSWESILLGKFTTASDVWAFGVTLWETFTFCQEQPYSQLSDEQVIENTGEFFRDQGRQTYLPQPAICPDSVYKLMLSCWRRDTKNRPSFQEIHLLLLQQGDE

[21] = AUC (0 to t) in mouse at 10 mg/kg, po by LC-MS/MS analysis; format: ADME, organism-based; conditions: in vivo
[22] = Apparent volume of distribution during terminal phase in Sprague-Dawley rat at 1 mg/kg, iv by LC-MS/MS analysis; format: ADME, organism-based; conditions: in vivo, read-out: Vz
[23] = Half life in mouse at 1 mg/kg, iv by LC-MS/MS analysis; format: ADME, organism-based; conditions: in vivo
[24] = target: Receptor-type tyrosine-protein kinase FLT3 (Homo sapiens) (UniProt P36888); assay: Inhibition of wild type C-terminal FLAG-tagged human TEL fused FLT3 (unknown origin) transfected in mouse BAF3 cells assessed as growth inhibition after 72 hrs by CCK8 assay; format: cell-based
Receptor-type tyrosine-protein kinase FLT3 (Homo sapiens), sequence (P36888 whole entry, the tested form may be a part): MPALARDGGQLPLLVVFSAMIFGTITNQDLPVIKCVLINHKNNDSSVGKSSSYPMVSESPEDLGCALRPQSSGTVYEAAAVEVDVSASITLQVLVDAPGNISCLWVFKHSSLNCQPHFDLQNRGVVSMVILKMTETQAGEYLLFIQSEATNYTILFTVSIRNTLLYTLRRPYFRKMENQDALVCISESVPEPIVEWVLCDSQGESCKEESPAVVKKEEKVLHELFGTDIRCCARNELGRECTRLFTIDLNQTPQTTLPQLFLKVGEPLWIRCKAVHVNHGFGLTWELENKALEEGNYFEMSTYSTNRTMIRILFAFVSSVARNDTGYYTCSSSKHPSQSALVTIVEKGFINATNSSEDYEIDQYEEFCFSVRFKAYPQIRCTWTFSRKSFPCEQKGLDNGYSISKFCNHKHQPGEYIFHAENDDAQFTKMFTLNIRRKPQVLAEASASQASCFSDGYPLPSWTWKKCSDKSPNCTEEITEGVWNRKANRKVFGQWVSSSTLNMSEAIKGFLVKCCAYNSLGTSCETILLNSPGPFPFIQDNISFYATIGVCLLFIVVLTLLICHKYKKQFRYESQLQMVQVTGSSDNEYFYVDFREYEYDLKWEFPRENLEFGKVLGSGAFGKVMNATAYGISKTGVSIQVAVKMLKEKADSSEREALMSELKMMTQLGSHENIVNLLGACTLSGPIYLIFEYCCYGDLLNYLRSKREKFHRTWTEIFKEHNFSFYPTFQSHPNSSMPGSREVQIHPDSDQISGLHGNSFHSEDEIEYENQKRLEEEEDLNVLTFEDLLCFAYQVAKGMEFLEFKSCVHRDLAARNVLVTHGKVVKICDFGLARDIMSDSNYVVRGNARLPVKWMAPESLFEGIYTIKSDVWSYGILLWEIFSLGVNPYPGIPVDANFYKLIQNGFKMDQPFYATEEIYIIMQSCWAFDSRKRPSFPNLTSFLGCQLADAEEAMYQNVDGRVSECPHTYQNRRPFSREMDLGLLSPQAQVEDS

[25] = target: T2, Bcr/Abl fusion protein (Homo sapiens); assay: Inhibition of BCR/ABL in human K562 cells assessed as inhibition of STAT5 phosphorylation up to 0.3 uM after 1 hr by immunoblotting analysis; format: cell-based
BaF3 [26] = assay: Antitumor activity against mouse BAF3 cells expressing BCR/ABL T315I mutant allografted in nu/nu mouse assessed as tumor growth inhibition at 50 mg/kg, po administered via gavage for 14 days relative to control; format: functional; conditions: 336 h, read-out: TGI
[27] = Cmax in Sprague-Dawley rat at 10 mg/kg, po by LC-MS/MS analysis; format: ADME, organism-based; design: dose 10 mg/kg, route oral; conditions: in vivo
[28] = MRT (0 to t) in mouse at 10 mg/kg, po by LC-MS/MS analysis; format: ADME, organism-based; conditions: in vivo
U-937 = assay: Antiproliferative activity in human U937 cells after 72 hrs by CCK8 assay; format: functional; conditions: U-937, 72 h
[29] = Antiproliferative activity in mouse BAF3 cells after 72 hrs by CCK8 assay; format: cell-based
[30] = Cmax in mouse at 1 mg/kg, iv by LC-MS/MS analysis; format: ADME, organism-based; design: dose 1 mg/kg, route intravenous; conditions: in vivo
BaF3 [31] = assay: Antitumor activity against mouse BAF3 cells expressing BCR/ABL T315I mutant allografted in nu/nu mouse assessed as tumor growth inhibition at 25 mg/kg, po administered via gavage for 14 days relative to control; format: functional; conditions: 336 h, read-out: TGI
K562 [32] = assay: Antiproliferative activity in human K562 cells after 72 hrs by CCK8 assay; format: functional; conditions: K562, 72 h
[33] = target: Vascular endothelial growth factor receptor 2 (Homo sapiens) (UniProt P35968); assay: Inhibition of wild type C-terminal FLAG-tagged human TEL fused VEGFR2 (unknown origin) transfected in mouse BAF3 cells assessed as growth inhibition after 72 hrs by CCK8 assay; format: cell-based
Vascular endothelial growth factor receptor 2 (Homo sapiens), sequence (P35968 whole entry, the tested form may be a part): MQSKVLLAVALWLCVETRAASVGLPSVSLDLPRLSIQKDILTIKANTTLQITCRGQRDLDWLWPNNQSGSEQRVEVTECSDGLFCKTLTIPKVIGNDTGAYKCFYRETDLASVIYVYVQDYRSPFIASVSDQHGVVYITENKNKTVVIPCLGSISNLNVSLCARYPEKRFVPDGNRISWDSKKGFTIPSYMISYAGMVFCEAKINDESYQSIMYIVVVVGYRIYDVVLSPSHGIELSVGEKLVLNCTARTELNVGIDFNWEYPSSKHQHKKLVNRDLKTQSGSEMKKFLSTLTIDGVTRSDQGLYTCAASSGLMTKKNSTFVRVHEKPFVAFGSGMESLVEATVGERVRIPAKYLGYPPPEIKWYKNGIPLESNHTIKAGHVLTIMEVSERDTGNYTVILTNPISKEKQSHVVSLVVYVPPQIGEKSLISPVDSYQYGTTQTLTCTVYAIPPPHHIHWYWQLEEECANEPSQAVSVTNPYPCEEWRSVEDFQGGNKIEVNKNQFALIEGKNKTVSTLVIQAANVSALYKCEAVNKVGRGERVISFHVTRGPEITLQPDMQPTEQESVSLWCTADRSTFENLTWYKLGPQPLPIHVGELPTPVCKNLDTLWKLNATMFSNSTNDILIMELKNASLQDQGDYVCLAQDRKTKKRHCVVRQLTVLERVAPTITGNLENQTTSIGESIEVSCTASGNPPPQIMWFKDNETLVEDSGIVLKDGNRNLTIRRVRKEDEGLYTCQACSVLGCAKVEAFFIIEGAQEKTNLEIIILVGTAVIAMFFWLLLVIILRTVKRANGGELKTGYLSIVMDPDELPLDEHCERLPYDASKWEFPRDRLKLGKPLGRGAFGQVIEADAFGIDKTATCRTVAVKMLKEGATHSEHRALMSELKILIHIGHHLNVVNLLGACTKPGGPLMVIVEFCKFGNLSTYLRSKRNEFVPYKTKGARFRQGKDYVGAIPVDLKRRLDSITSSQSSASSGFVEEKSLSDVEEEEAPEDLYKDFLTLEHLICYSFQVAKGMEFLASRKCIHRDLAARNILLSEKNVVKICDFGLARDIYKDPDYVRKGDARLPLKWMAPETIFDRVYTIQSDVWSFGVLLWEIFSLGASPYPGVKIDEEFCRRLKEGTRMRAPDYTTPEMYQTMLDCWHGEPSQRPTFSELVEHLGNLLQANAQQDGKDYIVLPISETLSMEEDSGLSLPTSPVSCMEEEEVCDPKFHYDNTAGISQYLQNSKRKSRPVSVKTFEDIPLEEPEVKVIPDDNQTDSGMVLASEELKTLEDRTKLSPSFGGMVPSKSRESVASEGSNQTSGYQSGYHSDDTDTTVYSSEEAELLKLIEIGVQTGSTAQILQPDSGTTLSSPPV

K562 [34] = assay: Induction of apoptosis in human K562 cells assessed as cleaved caspase-3 level up to 0.3 uM after 24 hrs by immunoblotting analysis; format: functional, cell-based
[35] = target: T2, Bcr/Abl fusion protein (Homo sapiens); assay: Inhibition of BCR/ABL in human KU812 cells assessed as inhibition of CrkL phosphorylation up to 0.3 uM after 1 hr by immunoblotting analysis; format: cell-based
[36] = target: T2, Bcr/Abl fusion protein (Homo sapiens); assay: Inhibition of BCR/ABL in human KU812 cells assessed as inhibition of STAT5 phosphorylation up to 0.3 uM after 1 hr by immunoblotting analysis; format: cell-based
Bcr/Abl fusion protein [37] = target: T1, Bcr/Abl fusion protein; assay: Inhibition of BCR/ABL T315I mutant (unknown origin) expressed in mouse BAF3 cells assessed as inhibition of CrkL phosphorylation after 1 hr by immunoblotting analysis; format: cell-based
[38] = Half life in mouse at 10 mg/kg, po by LC-MS/MS analysis; format: ADME, organism-based; conditions: in vivo
[39] = target: Tyrosine-protein kinase ABL1 (Homo sapiens, UniProt P00519); conditions: BaF3
Description: Inhibition of wild type C-terminal FLAG-tagged human TEL fused ABL (unknown origin) transfected in mouse BAF3 cells assessed as growth inhibition after 72 hrs by CCK8 assay

CN1CCN(Cc2ccc(NC(=O)CCSc3ccc4c(/C=C/c5ccccn5)n[nH]c4c3)cc2C(F)(F)F)CC1
MRT last [1]: 4.4 h | EC50 (Bcr/Abl fusion protein [2]): < 10 nM | MRT last [3]: 1.2 h | AUC(0-t) [4]: 148 ng·h/mL | EC50 (Bcr/Abl fusion protein [5]): < 10 nM | inhibition [6]: Active | Activity (MEG-01): Active | MRT last [7]: 1.7 h | Tmax [8]: 1.8 min | AUC(0-inf) [9]: 202 ng·h/mL | inhibition [10]: Active | GI50 at 72 h [11]: 1120 nM | inhibition [12]: Dose-dependent effect | EC50 (Bcr/Abl fusion protein [13]): < 10 nM | AUC(0-t) [14]: 210 ng·h/mL | Cmax [15]: 87.7 ng/mL | GI50 [16]: 1360 nM | CL/F [17]: 633 mL/min/kg | CLz/F [18]: 103 mL/min/kg | Activity (BaF3 [19]): Active | GI50 [20]: 1540 nM | AUC(0-t) [21]: 225 ng·h/mL | Vd [22]: 17.7 L/kg | half-life [23]: 5 h | GI50 [24]: 4 nM | inhibition [25]: Active | inhibition in vivo at 50 mg/kg (BaF3 [26]): 52% | Cmax [27]: 48.6 ng/mL | MRT last [28]: 3.3 h | GI50 (U-937): 780 nM | GI50 at 72 h [29]: 2480 nM | Cmax [30]: 525 ng/mL | inhibition in vivo at 25 mg/kg (BaF3 [31]): 29% | GI50 (K562 [32]): 1 nM | GI50 [33]: 2 nM | Activity (K562 [34]): Active | inhibition [35]: Active | inhibition [36]: Active | EC50 (Bcr/Abl fusion protein [37]): < 10 nM | half-life [38]: 2 h | GI50 [39]: < 1 nM
